Measured values as given in patent US11116764B2, “Combination of pure 5-HT6 receptor antagonists with NMDA receptor antagonist” (SUVEN LIFE SCIENCES LIMITED, priority 2016, dated 2021).
Structures can show the parent of a compound that is named as a salt.

Legend:
[1] = biological target: human recombinant 5-HT2A receptor (Homo sapiens (Human), UniProt P28223); experiment: Determination of Ki value at 5-HT2A receptor ([3H]-Ketanserine radioligand binding); conditions: [3H]-Ketanserine 1.75 nM, average of three independent experiments
Experimental: Determination of Ki Value at 5-HT2A Receptor
Compound was tested according to the following procedures.
Receptor source: Recombinant mammalian cells
Radioligand: [^3H]-Ketanserine (47.3 Ci/mmol)
Final ligand concentration—[1.75 nM]
Non-Specific Ligand: 0.1 mM 1-Naphthylpiperazine (1-NP)
Reference compound: 1-Naphthylpiperazine (1-NP)
Positive control: 1-Naphthylpiperazine (1-NP)
Incubation conditions: Reactions were carried out in 67 mM Tris-HCl (pH 7.4) for 4 hours at 37° C. The reaction was terminated by rapid vacuum filtration onto the glass fiber filters. Radioactivity trapped onto the filters was determined and compared to the control values in order to ascertain any interactions of the test compound(s) with the cloned serotonin 5-HT2A binding site. • Reference: Methods in Molecular Biology, 2002, 190, 31-49
Compounds 1, 2 and 3 bind weakly to 5-HT2A receptor when tested by the in-vitro radioligand binding technique on human recombinant 5-HT2A receptor. The Ki values tabulated below are average of three independent experiments.

[2] = system: Male Wistar rats; experiment: Object recognition task model; assay type: in vivo, rat; conditions: choice trial T2, 24 hours after T1; compared to the vehicle treatment
Experimental: Four animals were housed in each cage. […] Water was provided ad libitum throughout the experiment. […] Rats received vehicle or test compounds or memantine or test compound and memantine, before familiar (T1) and choice (T2) trials. […] During the T1 and T2 trial, explorations of each object (defined as sniffing, licking, chewing or having moving vibrissae whilst directing the nose towards the object at a distance of less than 1 cm) were recorded using stopwatch.

[3] = system: Male Wistar rats; experiment: Evaluation of acetylcholine modulation in ventral hippocampus of male Wistar rats (microdialysis); assay type: in vivo, rat; conditions: memantine 1 mg/kg s.c. alone or with compound 1 3 mg/kg p.o.; combination compared to memantine alone
Description: Evaluation of Acetylcholine Modulation in Ventral Hippocampus of Male Wistar Rats Experimental Procedure:
Male Wistar rats (240-300 g body weight) were stereotaxically implanted with a microdialysis guide cannula in ventral hippocampus (AP: −5.2 mm, ML: +5.0 mm, DV: −3.8 mm) under isoflurane anesthesia. Co-ordinates were taken according to atlas for the rat brain (Paxinos and Watson 2004) with reference points taken from bregma and vertical from the skull. The rats were allowed to recover individually for four-five days in a round bottom Plexiglas bowl with free access to feed and water.
After surgical recovery of 4-5 days, male Wistar rats were connected to dual quartz lined two-channel liquid swivel (Instech, UK) on a counter balance lever arm, which allowed unrestricted movements of the animal. […]
Acetylcholine in dialysate was quantified using LC-MS/MS method in the calibration range of 0.099 nmol/L-70.171 nmol/L.
All microdialysis data for acetylcholine was plotted as percent change from mean dialysate basal concentrations with 100% defined as the average of five pre-dose values. […] Area under the curve (AUC) values for percent change in acetylcholine levels were calculated and the statistical significance between the mean AUC value were compared against memantine treatment using one-way ANOVA followed by Dunnett's test. […]

[4] = system: Male Wistar rats; experiment: Evaluation of theta modulation in dorsal hippocampus of anesthetized male Wistar rats; assay type: in vivo, rat; conditions: memantine 1 mg/kg i.v. alone or 30 min after compound 1 1 mg/kg i.v.
Description: […]. Academic Press, New York Results:

Row | Compound | Ki [1] | discriminative index [2] | change in hippocampal acetylcholine levels [3] | change in hippocampal theta power [4]
1 | COc1ccc2c(c1)c(CN1CCN(C)CC1)cn2S(=O)(=O)c1ccccc1Br [Compound 1, 1-[(2-Bromophenyl)sulfonyl]-5-methoxy-3-[(4-methyl-1-piperazinyl)methyl]-1H-indole dimesylate monohydrate] | 2.51 ± 0.377 µM |  |  | 
2 | COc1ccc2c(c1)c(CN1CCN(C)CC1)cn2S(=O)(=O)c1ccc(F)cc1 [Compound 2, 1-[(4-Fluorophenyl)sulfonyl]-5-methoxy-3-[(4-methyl-1-piperazinyl)methyl]-1H-indole dihydrochloride] | > 10 µM |  |  | 
3 | COc1ccc2c(c1)c(CN1CCN(C)CC1)cn2S(=O)(=O)c1ccc(C(C)C)cc1 [Compound 3, 1-[(4-Isopropylphenyl)sulfonyl]-5-methoxy-3-[(4-methyl-1-piperazinyl)methyl]-1H-indole dihydrochloride] | 0.926 ± 0.317 µM |  |  | 
4 | CC12CC3CC(C)(C1)CC(N)(C3)C2 [memantine] |  | No significant increase | moderate change | no change
